In the kinase profiling compilation of Christmann-Franck et al. (2016):

Columns and labels:
Assay in all cases: radiometric filter-binding kinase assay
TBK1 (human) = TBK1 (human) (UniProt Q9UHD2)
AURKB (human) = AURKB (human) (UniProt Q96GD4)
TTK (human) = TTK (human) (UniProt P33981)
PAK4 (human) = PAK4 (human) (UniProt O96013)
MAP3K11 (human) = MAP3K11 (human) (UniProt Q16584)
CDK2 CCNA2 (human) = CDK2 CCNA2 (human) (UniProt P20248+P24941)
EPHA2 (human) = EPHA2 (human) (UniProt P29317)
MAPKAPK2 (human) = MAPKAPK2 (human) (UniProt P49137)
PLK1 (human) = PLK1 (human) (UniProt P53350)
MAP3K7 TAB1 (human) = MAP3K7 TAB1 (human) (UniProt Q15750+O43318)
MAPK13 (human) = MAPK13 (human) (UniProt O15264)
PAK6 (human) = PAK6 (human) (UniProt Q9NQU5)
MAPKAPK5 (human) = MAPKAPK5 (human) (UniProt Q8IW41)
CaMK1 (human) = CaMK1 (human) (UniProt Q14012)
MKNK2 (human) = MKNK2 (human) (UniProt Q9HBH9)
MST4 (human) = MST4 (human) (UniProt Q9P289)
MST4 (human), sequence (Q9P289 whole entry, looked up): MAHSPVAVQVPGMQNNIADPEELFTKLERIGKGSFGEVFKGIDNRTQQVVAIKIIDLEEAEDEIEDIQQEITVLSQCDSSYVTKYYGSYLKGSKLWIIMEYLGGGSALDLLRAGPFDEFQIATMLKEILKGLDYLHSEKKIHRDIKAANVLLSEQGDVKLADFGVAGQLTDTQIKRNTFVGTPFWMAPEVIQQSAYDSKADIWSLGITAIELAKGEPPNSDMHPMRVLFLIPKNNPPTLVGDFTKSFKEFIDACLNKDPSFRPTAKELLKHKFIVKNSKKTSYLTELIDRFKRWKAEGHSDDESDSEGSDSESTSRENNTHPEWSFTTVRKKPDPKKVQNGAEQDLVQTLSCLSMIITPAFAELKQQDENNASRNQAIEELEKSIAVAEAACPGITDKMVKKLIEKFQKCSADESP

INSR (human) = INSR (human) (UniProt P06213)
DYRK2 (human) = DYRK2 (human) (UniProt Q92630)
[1] = target: STK11 CAB39 STRADA (human) (UniProt Q9Y376+Q7RTN6+Q15831)
DYRK3 (human) = DYRK3 (human) (UniProt O43781)
DYRK3 (human), sequence (O43781 whole entry, looked up): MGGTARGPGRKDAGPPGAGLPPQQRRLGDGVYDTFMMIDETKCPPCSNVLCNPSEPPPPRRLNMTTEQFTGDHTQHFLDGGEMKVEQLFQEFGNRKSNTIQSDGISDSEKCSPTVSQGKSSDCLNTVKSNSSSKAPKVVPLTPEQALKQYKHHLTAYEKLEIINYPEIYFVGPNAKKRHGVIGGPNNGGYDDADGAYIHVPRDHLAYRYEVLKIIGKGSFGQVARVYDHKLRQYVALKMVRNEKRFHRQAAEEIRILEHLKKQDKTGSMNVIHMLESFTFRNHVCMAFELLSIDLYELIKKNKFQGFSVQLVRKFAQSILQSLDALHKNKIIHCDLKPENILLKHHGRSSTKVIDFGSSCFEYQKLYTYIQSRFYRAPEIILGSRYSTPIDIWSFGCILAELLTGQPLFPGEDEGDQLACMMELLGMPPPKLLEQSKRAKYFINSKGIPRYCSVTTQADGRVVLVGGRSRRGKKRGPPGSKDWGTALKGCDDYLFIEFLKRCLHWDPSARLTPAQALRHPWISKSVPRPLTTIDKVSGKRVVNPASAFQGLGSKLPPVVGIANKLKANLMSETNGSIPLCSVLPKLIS

PKN2 (human) = PKN2 (human) (UniProt Q16513)
MYLK (human) = MYLK (human) (UniProt Q15746)
MYLK (human), sequence (Q15746 whole entry, looked up): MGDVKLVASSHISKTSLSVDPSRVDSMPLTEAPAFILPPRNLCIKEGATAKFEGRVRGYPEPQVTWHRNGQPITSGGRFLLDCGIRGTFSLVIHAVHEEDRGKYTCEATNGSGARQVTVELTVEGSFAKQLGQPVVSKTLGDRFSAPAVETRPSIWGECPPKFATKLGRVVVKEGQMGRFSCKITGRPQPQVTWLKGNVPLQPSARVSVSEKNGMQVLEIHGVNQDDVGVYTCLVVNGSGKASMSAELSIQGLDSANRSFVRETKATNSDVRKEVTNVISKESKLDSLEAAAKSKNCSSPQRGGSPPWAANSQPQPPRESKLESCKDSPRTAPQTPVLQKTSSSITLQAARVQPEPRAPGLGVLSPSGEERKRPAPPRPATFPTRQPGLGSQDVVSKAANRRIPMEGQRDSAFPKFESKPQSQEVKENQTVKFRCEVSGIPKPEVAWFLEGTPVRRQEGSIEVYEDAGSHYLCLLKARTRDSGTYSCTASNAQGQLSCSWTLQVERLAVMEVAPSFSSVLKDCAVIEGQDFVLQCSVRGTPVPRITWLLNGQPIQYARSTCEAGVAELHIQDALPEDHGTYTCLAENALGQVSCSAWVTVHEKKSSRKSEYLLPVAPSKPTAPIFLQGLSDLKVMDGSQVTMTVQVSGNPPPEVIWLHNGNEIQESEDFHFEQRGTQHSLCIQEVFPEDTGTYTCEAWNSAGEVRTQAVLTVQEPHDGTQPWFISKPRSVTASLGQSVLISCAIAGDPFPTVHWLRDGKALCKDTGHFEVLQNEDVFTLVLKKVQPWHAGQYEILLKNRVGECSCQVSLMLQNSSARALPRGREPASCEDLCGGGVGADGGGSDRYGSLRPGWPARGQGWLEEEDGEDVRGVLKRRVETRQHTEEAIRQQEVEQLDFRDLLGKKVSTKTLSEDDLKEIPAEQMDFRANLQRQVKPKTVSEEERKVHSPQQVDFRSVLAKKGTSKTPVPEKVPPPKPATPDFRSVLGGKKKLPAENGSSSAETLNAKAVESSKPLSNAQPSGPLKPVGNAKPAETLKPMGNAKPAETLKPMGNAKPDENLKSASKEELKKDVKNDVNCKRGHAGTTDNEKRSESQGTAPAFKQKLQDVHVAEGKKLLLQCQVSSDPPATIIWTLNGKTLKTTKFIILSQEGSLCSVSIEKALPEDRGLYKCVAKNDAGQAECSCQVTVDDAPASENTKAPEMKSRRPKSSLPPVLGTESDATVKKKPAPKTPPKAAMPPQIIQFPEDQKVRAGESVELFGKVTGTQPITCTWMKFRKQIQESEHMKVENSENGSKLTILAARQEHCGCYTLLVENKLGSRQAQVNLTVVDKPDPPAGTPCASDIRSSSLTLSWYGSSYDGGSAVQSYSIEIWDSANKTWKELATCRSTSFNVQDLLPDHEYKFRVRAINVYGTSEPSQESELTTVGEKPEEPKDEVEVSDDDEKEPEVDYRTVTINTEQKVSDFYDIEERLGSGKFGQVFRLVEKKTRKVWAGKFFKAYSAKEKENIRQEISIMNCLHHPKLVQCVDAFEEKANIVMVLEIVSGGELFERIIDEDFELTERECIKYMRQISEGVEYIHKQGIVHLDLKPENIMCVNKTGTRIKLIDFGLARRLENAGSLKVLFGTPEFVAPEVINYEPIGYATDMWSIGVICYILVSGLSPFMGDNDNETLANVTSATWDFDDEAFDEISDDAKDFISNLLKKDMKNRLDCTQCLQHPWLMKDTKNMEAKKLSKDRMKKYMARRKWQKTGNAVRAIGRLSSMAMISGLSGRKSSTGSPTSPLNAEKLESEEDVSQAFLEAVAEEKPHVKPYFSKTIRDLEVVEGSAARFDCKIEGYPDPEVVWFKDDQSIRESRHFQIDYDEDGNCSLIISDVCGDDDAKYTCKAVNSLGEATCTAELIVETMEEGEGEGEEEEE

MAP2K2 (human) = MAP2K2 (human) (UniProt P36507)
YES1 (human) = YES1 (human) (UniProt P07947)
YES1 (human), sequence (P07947 whole entry, looked up): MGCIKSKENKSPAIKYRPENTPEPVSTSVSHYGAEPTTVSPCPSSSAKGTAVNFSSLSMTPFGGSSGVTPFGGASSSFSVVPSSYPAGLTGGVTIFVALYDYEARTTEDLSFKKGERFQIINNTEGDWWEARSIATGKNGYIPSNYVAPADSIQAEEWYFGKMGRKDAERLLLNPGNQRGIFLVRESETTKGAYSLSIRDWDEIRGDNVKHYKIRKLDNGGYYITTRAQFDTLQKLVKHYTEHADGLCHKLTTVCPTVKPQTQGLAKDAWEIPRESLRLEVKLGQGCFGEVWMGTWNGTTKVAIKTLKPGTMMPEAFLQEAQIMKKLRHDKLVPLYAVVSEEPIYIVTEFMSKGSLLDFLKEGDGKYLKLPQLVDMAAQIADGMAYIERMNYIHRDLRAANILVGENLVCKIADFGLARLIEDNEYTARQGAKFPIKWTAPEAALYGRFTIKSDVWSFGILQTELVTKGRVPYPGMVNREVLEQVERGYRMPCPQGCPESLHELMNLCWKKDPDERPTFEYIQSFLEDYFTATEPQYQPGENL

MAPK1 (human) = MAPK1 (human) (UniProt P28482)
IRAK4 (human) = IRAK4 (human) (UniProt Q9NWZ3)
IKBKE (human) = IKBKE (human) (UniProt Q14164)
HIPK1 (human) = HIPK1 (human) (UniProt Q86Z02)
EPHB1 (human) = EPHB1 (human) (UniProt P54762)
EPHB3 (human) = EPHB3 (human) (UniProt P54753)
MAPK3 (human) = MAPK3 (human) (UniProt P27361)
RIPK2 (human) = RIPK2 (human) (UniProt O43353)
PRKCZ (human) = PRKCZ (human) (UniProt Q05513)
PRKCZ (human), sequence (Q05513 whole entry, looked up): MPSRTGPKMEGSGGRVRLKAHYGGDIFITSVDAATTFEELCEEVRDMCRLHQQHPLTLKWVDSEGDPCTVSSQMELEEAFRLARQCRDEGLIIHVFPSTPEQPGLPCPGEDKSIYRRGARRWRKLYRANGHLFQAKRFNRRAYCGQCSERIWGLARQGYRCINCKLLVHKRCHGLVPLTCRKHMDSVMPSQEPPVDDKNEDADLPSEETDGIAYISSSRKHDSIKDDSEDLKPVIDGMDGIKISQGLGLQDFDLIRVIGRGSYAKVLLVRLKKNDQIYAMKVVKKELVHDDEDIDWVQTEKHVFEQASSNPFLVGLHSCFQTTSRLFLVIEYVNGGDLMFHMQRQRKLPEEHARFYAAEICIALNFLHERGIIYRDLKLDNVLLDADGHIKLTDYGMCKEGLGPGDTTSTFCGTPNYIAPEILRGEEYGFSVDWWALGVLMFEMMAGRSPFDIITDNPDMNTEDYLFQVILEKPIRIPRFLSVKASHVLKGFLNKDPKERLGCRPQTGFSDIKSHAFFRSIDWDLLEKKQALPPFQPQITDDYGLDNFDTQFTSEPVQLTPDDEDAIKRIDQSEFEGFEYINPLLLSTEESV

MAP3K1 (human) = MAP3K1 (human) (UniProt Q13233)
MARK4 (human) = MARK4 (human) (UniProt Q96L34)

EPHA2 (human), sequence (P29317 whole entry, looked up): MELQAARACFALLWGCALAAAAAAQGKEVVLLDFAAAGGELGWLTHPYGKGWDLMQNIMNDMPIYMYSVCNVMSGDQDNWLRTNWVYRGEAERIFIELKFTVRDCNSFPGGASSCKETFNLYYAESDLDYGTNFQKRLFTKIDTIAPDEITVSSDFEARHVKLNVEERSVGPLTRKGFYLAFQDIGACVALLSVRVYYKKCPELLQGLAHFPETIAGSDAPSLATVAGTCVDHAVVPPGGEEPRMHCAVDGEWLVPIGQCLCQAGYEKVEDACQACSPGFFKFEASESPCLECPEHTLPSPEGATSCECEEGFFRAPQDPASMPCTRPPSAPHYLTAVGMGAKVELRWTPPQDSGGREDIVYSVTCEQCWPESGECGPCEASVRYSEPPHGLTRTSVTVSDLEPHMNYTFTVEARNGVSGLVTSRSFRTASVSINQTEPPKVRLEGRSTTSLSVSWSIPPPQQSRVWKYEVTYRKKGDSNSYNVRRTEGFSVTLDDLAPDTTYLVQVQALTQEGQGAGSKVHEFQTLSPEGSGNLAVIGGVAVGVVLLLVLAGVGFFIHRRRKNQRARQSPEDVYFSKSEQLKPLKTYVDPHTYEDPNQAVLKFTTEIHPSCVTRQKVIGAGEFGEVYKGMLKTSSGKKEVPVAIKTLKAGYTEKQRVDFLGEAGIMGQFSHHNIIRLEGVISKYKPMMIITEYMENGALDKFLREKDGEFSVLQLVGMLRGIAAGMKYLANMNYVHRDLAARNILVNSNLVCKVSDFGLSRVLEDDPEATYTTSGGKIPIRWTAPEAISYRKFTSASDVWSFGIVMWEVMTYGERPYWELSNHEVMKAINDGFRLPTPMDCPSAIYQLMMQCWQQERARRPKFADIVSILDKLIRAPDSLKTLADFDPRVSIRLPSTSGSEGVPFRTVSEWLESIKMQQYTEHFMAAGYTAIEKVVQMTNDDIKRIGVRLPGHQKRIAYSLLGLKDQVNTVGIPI

O=C1c2ccccc2-c2n[nH]c3cccc1c23 was tested, and the residual activity (TBK1 (human); compound 1.0 µM) was 76%, the residual activity (TBK1 (human); compound 10.0 µM) was 41% and the residual activity (AURKB (human); compound 1.0 µM) was 15%. The residual activity (AURKB (human); compound 10.0 µM) was 13%, the residual activity (TTK (human); compound 1.0 µM) was 74% and the residual activity (TTK (human); compound 10.0 µM) was 57%. It also gave a residual activity (PAK4 (human); compound 1.0 µM) of 80%, a residual activity (PAK4 (human); compound 10.0 µM) of 25% and a residual activity (MAP3K11 (human); compound 1.0 µM) of 14%. The residual activity (MAP3K11 (human); compound 10.0 µM) was 4%, the residual activity (CDK2 CCNA2 (human); compound 1.0 µM) was 50% and the residual activity (CDK2 CCNA2 (human); compound 10.0 µM) was 14%. It also gave a residual activity (EPHA2 (human); compound 1.0 µM) of 78%, a residual activity (EPHA2 (human); compound 10.0 µM) of 42% and a residual activity (MAPKAPK2 (human); compound 1.0 µM) of 95%. For the same compound, the residual activity (MAPKAPK2 (human); compound 10.0 µM) was 77%, the residual activity (PLK1 (human); compound 1.0 µM) was 113% and the residual activity (PLK1 (human); compound 10.0 µM) was 110%. For the same compound, the residual activity (MAP3K7 TAB1 (human); compound 1.0 µM) was 30%, the residual activity (MAP3K7 TAB1 (human); compound 10.0 µM) was 8% and the residual activity (MAPK13 (human); compound 1.0 µM) was 98%. For the same compound, the residual activity (MAPK13 (human); compound 10.0 µM) was 26%, the residual activity (PAK6 (human); compound 1.0 µM) was 91% and the residual activity (PAK6 (human); compound 10.0 µM) was 54%. It also gave a residual activity (MAPKAPK5 (human); compound 1.0 µM) of 78%, a residual activity (MAPKAPK5 (human); compound 10.0 µM) of 39% and a residual activity (CaMK1 (human); compound 1.0 µM) of 70%. It also gave a residual activity (CaMK1 (human); compound 10.0 µM) of 31%, a residual activity (MKNK2 (human); compound 1.0 µM) of 61% and a residual activity (MKNK2 (human); compound 10.0 µM) of 29%. The residual activity (MST4 (human); compound 1.0 µM) was 58%, the residual activity (MST4 (human); compound 10.0 µM) was 17% and the residual activity (INSR (human); compound 1.0 µM) was 89%. The residual activity (INSR (human); compound 10.0 µM) was 27%, the residual activity (DYRK2 (human); compound 1.0 µM) was 12% and the residual activity (DYRK2 (human); compound 10.0 µM) was 2%. The residual activity ([1]; compound 1.0 µM) was 40%, the residual activity ([1]; compound 10.0 µM) was 18% and the residual activity (DYRK3 (human); compound 1.0 µM) was 45%. For the same compound, the residual activity (DYRK3 (human); compound 10.0 µM) was 10%, the residual activity (PKN2 (human); compound 1.0 µM) was 86% and the residual activity (PKN2 (human); compound 10.0 µM) was 64%. For the same compound, the residual activity (MYLK (human); compound 1.0 µM) was 26%, the residual activity (MYLK (human); compound 10.0 µM) was 11% and the residual activity (MAP2K2 (human); compound 1.0 µM) was 64%. For the same compound, the residual activity (MAP2K2 (human); compound 10.0 µM) was 21%, the residual activity (YES1 (human); compound 1.0 µM) was 71% and the residual activity (YES1 (human); compound 10.0 µM) was 33%. It also gave a residual activity (MAPK1 (human); compound 1.0 µM) of 83%, a residual activity (MAPK1 (human); compound 10.0 µM) of 62% and a residual activity (IRAK4 (human); compound 1.0 µM) of 33%. The residual activity (IRAK4 (human); compound 10.0 µM) was 8%, the residual activity (IKBKE (human); compound 1.0 µM) was 79% and the residual activity (IKBKE (human); compound 10.0 µM) was 39%. The residual activity (HIPK1 (human); compound 1.0 µM) was 81%, the residual activity (HIPK1 (human); compound 10.0 µM) was 27% and the residual activity (EPHB1 (human); compound 1.0 µM) was 108%. The residual activity (EPHB1 (human); compound 10.0 µM) was 70%, the residual activity (EPHB3 (human); compound 1.0 µM) was 102% and the residual activity (EPHB3 (human); compound 10.0 µM) was 49%. For the same compound, the residual activity (MAPK3 (human); compound 1.0 µM) was 94%, the residual activity (MAPK3 (human); compound 10.0 µM) was 45% and the residual activity (RIPK2 (human); compound 1.0 µM) was 80%. For the same compound, the residual activity (RIPK2 (human); compound 10.0 µM) was 48%, the residual activity (PRKCZ (human); compound 1.0 µM) was 93% and the residual activity (PRKCZ (human); compound 10.0 µM) was 89%. The residual activity (MAP3K1 (human); compound 1.0 µM) was 73%, the residual activity (MAP3K1 (human); compound 10.0 µM) was 28% and the residual activity (MARK4 (human); compound 1.0 µM) was 72%. The residual activity (MARK4 (human); compound 10.0 µM) was 32%.

Cc1nc(N)sc1-c1csc(Nc2cccnc2)n1 showed a residual activity (TBK1 (human); compound 10.0 µM) of 75%, a residual activity (AURKB (human); compound 10.0 µM) of 70% and a residual activity (AURKB (human); compound 100.0 µM) of 3%. The residual activity (TTK (human); compound 10.0 µM) was 53%, the residual activity (TTK (human); compound 100.0 µM) was 35% and the residual activity (PAK4 (human); compound 10.0 µM) was 74%. It also gave a residual activity (MAP3K11 (human); compound 10.0 µM) of 47%, a residual activity (MAP3K11 (human); compound 100.0 µM) of 9% and a residual activity (CDK2 CCNA2 (human); compound 10.0 µM) of 63%. The residual activity (EPHA2 (human); compound 10.0 µM) was 103%, the residual activity (MAPKAPK2 (human); compound 10.0 µM) was 92% and the residual activity (MAPKAPK2 (human); compound 100.0 µM) was 5%. The residual activity (PLK1 (human); compound 10.0 µM) was 35%, the residual activity (PLK1 (human); compound 100.0 µM) was 22% and the residual activity (MAP3K7 TAB1 (human); compound 10.0 µM) was 79%. For the same compound, the residual activity (MAPK13 (human); compound 10.0 µM) was 88%, the residual activity (MAPK13 (human); compound 100.0 µM) was 46% and the residual activity (PAK6 (human); compound 10.0 µM) was 84%. The residual activity (MAPKAPK5 (human); compound 10.0 µM) was 94%, the residual activity (CaMK1 (human); compound 10.0 µM) was 20% and the residual activity (CaMK1 (human); compound 100.0 µM) was 5%. It also gave a residual activity (MKNK2 (human); compound 10.0 µM) of 65%, a residual activity (MST4 (human); compound 10.0 µM) of 96% and a residual activity (INSR (human); compound 10.0 µM) of 34%. It also gave a residual activity (INSR (human); compound 100.0 µM) of 69%, a residual activity (DYRK2 (human); compound 10.0 µM) of 50% and a residual activity (DYRK2 (human); compound 100.0 µM) of 8%. For the same compound, the residual activity ([1]; compound 10.0 µM) was 64%, the residual activity (DYRK3 (human); compound 10.0 µM) was 45% and the residual activity (DYRK3 (human); compound 100.0 µM) was 6%. It also gave a residual activity (PKN2 (human); compound 10.0 µM) of 76%, a residual activity (MYLK (human); compound 10.0 µM) of 68% and a residual activity (MAP2K2 (human); compound 10.0 µM) of 87%. For the same compound, the residual activity (YES1 (human); compound 10.0 µM) was 77%, the residual activity (MAPK1 (human); compound 10.0 µM) was 93% and the residual activity (MAPK1 (human); compound 100.0 µM) was 95%. The residual activity (IRAK4 (human); compound 10.0 µM) was 74%, the residual activity (IKBKE (human); compound 10.0 µM) was 67% and the residual activity (IKBKE (human); compound 100.0 µM) was 4%. For the same compound, the residual activity (HIPK1 (human); compound 10.0 µM) was 84%, the residual activity (EPHB1 (human); compound 10.0 µM) was 93% and the residual activity (EPHB3 (human); compound 10.0 µM) was 101%. For the same compound, the residual activity (MAPK3 (human); compound 10.0 µM) was 66%, the residual activity (MAPK3 (human); compound 100.0 µM) was 21% and the residual activity (RIPK2 (human); compound 10.0 µM) was 52%. It also gave a residual activity (RIPK2 (human); compound 100.0 µM) of 23%, a residual activity (PRKCZ (human); compound 10.0 µM) of 95% and a residual activity (MAP3K1 (human); compound 10.0 µM) of 90%. It also gave a residual activity (MARK4 (human); compound 10.0 µM) of 83%.
